Literature values, collected in patent US20250059333A1, “BILAYER BIONIC DRUG-LOADED HYDROGEL, AND PREPARATION AND APPLICATION THEREOF” (Chengdu Hengkui Biotechnology Co., Ltd., priority 2022, published 2025).

Conditions: relative to glutaraldehyde, a commonly used chemical cross-linking agent

COC(=O)C1=CO[C@@H](O)[C@@H]2C(CO)=CC[C@H]12 [genipin]
toxicity lower than that of glutaraldehyde: 10000 times
